Common to all, as to assay: Bliss excess, mean over the matrix (fraction); higher = more synergy
Test [1] deals with A172 (Glioblastoma). Summed up:
(§1)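 Cell lines in DMEM/F12 or RPMI with 10% FBS were plated in 1536-well plates, held 24 hours at 37°C, 5% CO2, then given two-drug dose matrices for 72 hours (DMSO typically 0.2%). Viability was read by CellTiter-Glo 2.0 luminescence and scaled as inhibition from 0 (vehicle wells) to 1 (blank wells). Combination Emax is the second-highest inhibition in the matrix; Bliss excess is observed combination effect minus expected EA + EB − EA·EB, EA and EB being single-agent effects.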

The subject of test [2] is HOP-92 (Non-Small Cell Lung Carcinoma). Summed up:
as §1

For test [3], the system named is D-392MG (Glioblastoma). Summed up: as §1
The subject of test [4] is GDM-1 (Acute Myeloid Leukemia). Put shortly: as §1
Test [5] concerns DOK (Oral Cavity Carcinoma). Summed up:
as §1

Test [6] has as its system Saos-2 (Osteosarcoma). Put shortly:
as §1

In test [7] the test system is NCI-H1688 (Small Cell Lung Carcinoma). Put shortly:
as §1

Test [8] relates to PA-TU-8902 (Pancreatic Carcinoma). Put shortly: as §1
The subject of test [9] is 647-V (Bladder Carcinoma). Put shortly: as §1
The test system of test [10] is JHH-6 (Hepatocellular Carcinoma). Put shortly:
as §1

Test [11] relates to MEG-01 (Chronic Myelogenous Leukemia). Summed up:
as §1

Test [12] has as its system U-118-MG (Low Grade Glioma). Put shortly: as §1
The subject of test [13] is HCC-827 (Lung Adenocarcinoma). Put shortly: as §1
The test system of test [14] is RCC10RGB (Kidney Carcinoma). Put shortly:
as §1

Test [15] has as its system CS1 (Chondrosarcoma). Put shortly: as §1
The test system of test [16] is HCC38 (Breast Carcinoma). Summed up:
as §1

Test [17] deals with ETK-1 (Biliary Tract Carcinoma). Put shortly: as §1
The test system of test [18] is SK-LMS-1 (Other Solid Carcinomas). Put shortly:
as §1

The test system of test [19] is SLVL (B-Cell Non-Hodgkin's Lymphoma). Summed up: as §1
For test [20], the system named is SK-MEL-1 (Melanoma). Summed up:
as §1

The text below walks through data of the supplement of paper PMC11061612.

Take `CC1(C)CCC(CN2CCN(c3ccc(C(=O)NS(=O)(=O)c4ccc(NCC5CCOCC5)c([N+](=O)[O-])c4)c(Oc4cnc5[nH]ccc5c4)c3)CC2)=C(c2ccc(Cl)cc2)C1` [Venetoclax] + CCN(CCO)CCCOc1ccc2c(Nc3cc(CC(=O)Nc4cccc(F)c4)[nH]n3)ncnc2c1 [AZD2811] (first compound max 1 µM, 7x7, partner max 1 µM): the Bliss excess in [1] is -0.0296; in test [2], 0.0135; in test [3] it was -0.0351; in test [4], 0.0676; in [5] it was -0.0249; in [6], 0.0727. For the same molecule, the Bliss excess in test [7] was 0.0436; in test [8], -0.0417; in [9] it was 0.0533; in test [10], -0.049; in test [11], -0.0108; in test [12], -0.0032. The Bliss excess in [13] is -0.015; in test [14] it was -0.066; in test [15] it was -0.0259; in test [16], 0.0347; in test [17] it was -0.0793; in [18] it was -0.0616. Moreover, the Bliss excess in test [19] is 0.0685; in test [20], -0.022.

Turning to `CC1(C)CCC(CN2CCN(c3ccc(C(=O)NS(=O)(=O)c4ccc(NCC5CCOCC5)c([N+](=O)[O-])c4)c(Oc4cnc5[nH]ccc5c4)c3)CC2)=C(c2ccc(Cl)cc2)C1` [Venetoclax] + CN(C)CCCOc1ccc(-c2ccc3ncc4c(c3c2)n(C2CCOCC2)c(=O)n4C)cn1 [AZD0156] (first compound max 1 µM, 7x7, partner max 1 µM), the Bliss excess is -0.0482 in [1]; 0.0047 in test [2]; -0.0225 in [3]; -0.0235 in test [4]; -0.0184 in test [5]; -0.0364 in [6]. The Bliss excess in [7] is 0.0209; in [8], -0.0507; in [9], -0.0036; in test [10], -0.0391; in [11], -0.0291; in test [12] it was -0.0076. The Bliss excess in test [13] is -0.0453; in [14] it was -0.0677; in [15] it was 0.0599; in test [16], 0.0361; in test [17], -0.021; in test [18], 0.001. The Bliss excess in test [19] is 0.058; in test [20], -0.0397.

Take `CC1(C)CCC(CN2CCN(c3ccc(C(=O)NS(=O)(=O)c4ccc(NCC5CCOCC5)c([N+](=O)[O-])c4)c(Oc4cnc5[nH]ccc5c4)c3)CC2)=C(c2ccc(Cl)cc2)C1` [Venetoclax] + COc1cc(Nc2ncc3c(n2)-c2ccc(Cl)cc2C(c2c(F)cccc2OC)=NC3)ccc1C(=O)O [Alisertib] (first compound max 1 µM, 7x7, partner max 10 µM): the Bliss excess was -0.108 in test [1]; 0.082 in test [2]; -0.042 in [3]; 0.0312 in [4]; 0.0114 in test [5]; 0.047 in test [6]. In addition, the Bliss excess in [7] is 0.0566; in test [8] it was -0.0664; in [9] it was -0.0092; in test [10] it was -0.0311; in [11], 0.0985; in test [12] it was -0.013. The Bliss excess in test [13] was -0.0795; in test [14], -0.0943; in test [15] it was -0.0227; in [16], -0.0184; in [17], -0.0385; in test [18], 0.0215. Besides, the Bliss excess was determined as 0.0761 in test [19] and 0.0439 in test [20].

Turning to `CC1(C)CCC(CN2CCN(c3ccc(C(=O)NS(=O)(=O)c4ccc(NCC5CCOCC5)c([N+](=O)[O-])c4)c(Oc4cnc5[nH]ccc5c4)c3)CC2)=C(c2ccc(Cl)cc2)C1` [Venetoclax] + C[C@@H]1COCCN1C2=NC(=NC(=C2)C3(CC3)[S@](=N)(=O)C)C4=C5C=CNC5=NC=C4 [AZD6738] (first compound max 1 µM, 7x7, partner max 10 µM), the Bliss excess was -0.0141 in test [1]; -0.0427 in test [2]; -0.0807 in [3]; -0.0163 in [4]; -0.0833 in [5]; -0.0316 in test [6]. Besides, the Bliss excess in test [7] was 0.0294; in test [8], -0.0236; in test [9], -0.0317; in test [10] it was -0.03; in [11], -0.0256; in test [12] it was -0.0106. Besides, the Bliss excess in [13] was -0.0418; in test [14], -0.0242; in [15], 0.0039; in [16] it was -0.0264; in test [17], -0.0562; in test [18], -0.0884. The Bliss excess in test [19] is -0.0162; in test [20] it was -0.027.

Regarding `CC1(C)CCC(CN2CCN(c3ccc(C(=O)NS(=O)(=O)c4ccc(NCC5CCOCC5)c([N+](=O)[O-])c4)c(Oc4cnc5[nH]ccc5c4)c3)CC2)=C(c2ccc(Cl)cc2)C1` [Venetoclax] + C[C@@H](Nc1cc(F)cc(F)c1)c1cc(C(=O)N(C)C)cc2c(=O)cc(N3CCOCC3)oc12 [AZD8186] (first compound max 1 µM, 7x7, partner max 3 µM), the Bliss excess is -0.0414 in test [1]; -0.0212 in test [2]; -0.061 in [3]; 0.15 in test [4]; -0.0548 in test [5]; 0 in [6]. Also, the Bliss excess in test [7] is -0.0385; in [8], -0.0453; in [9] it was -0.0019; in [10], -0.0135; in test [11], -0.0492; in test [12], -0.0383. In addition, the Bliss excess in [13] is -0.0146; in test [14], -0.0866; in [15], -0.0923; in test [16] it was -0.0075; in test [17], -0.0284; in test [18], -0.014. Moreover, the values for the Bliss excess in test [19] and in test [20] were 0.0395 and -0.0239, respectively.

`CC1(C)CCC(CN2CCN(c3ccc(C(=O)NS(=O)(=O)c4ccc(NCC5CCOCC5)c([N+](=O)[O-])c4)c(Oc4cnc5[nH]ccc5c4)c3)CC2)=C(c2ccc(Cl)cc2)C1` [Venetoclax] + Cc1cc2ncnn2cc1Nc1ncc2c(n1)n(C1CCOCC1)c(=O)n2C [AZD7648] (first compound max 1 µM, 7x7, partner max 10 µM): the Bliss excess in [1] was -0.0385; in [2] it was -0.0194; in test [3], -0.0374; in test [4], 0.0419; in test [5], -0.0208; in test [6], -0.0075. Also, the Bliss excess in test [7] was 0.0457; in [8], -0.0715; in test [9] it was 0.0316; in test [10] it was -0.0302; in test [11], -0.0249; in [12], -0.0148. Moreover, the Bliss excess in test [13] is 0.0085; in [14], -0.0536; in test [15], -0.0949; in test [16], -0.007; in test [17] it was 0.0273; in test [18], -0.0292. Besides, the values for the Bliss excess in test [19] and in [20] were 0.0013 and -0.0242, respectively.

Consider `CC1(C)CCC(CN2CCN(c3ccc(C(=O)NS(=O)(=O)c4ccc(NCC5CCOCC5)c([N+](=O)[O-])c4)c(Oc4cnc5[nH]ccc5c4)c3)CC2)=C(c2ccc(Cl)cc2)C1` [Venetoclax] + Cn1cnc2c(F)c(Nc3ccc(Br)cc3Cl)c(C(=O)NOCCO)cc21 [Selumetinib] (first compound max 1 µM, 7x7, partner max 3 µM), for which the Bliss excess is -0.0176 in test [1]; -0.0338 in test [2]; -0.0331 in test [3]; 0.0554 in test [4]; -0.0258 in test [5]; -0.0057 in test [6]. Further, the Bliss excess was -0.0333 in test [7]; -0.0178 in [8]; -0.0064 in [9]; -0.0252 in test [10]; -0.0242 in [11]; -0.0336 in test [12]. For the same molecule, the Bliss excess in test [13] is -0.0212; in test [14], -0.079; in [15], -0.0498; in test [16], -0.0322; in test [17] it was -0.0333; in test [18], -0.029. In addition, the Bliss excess is 0.0299 in [19] and -0.0332 in test [20].
